Data as given in patent US4528194A, “2-(4-Diphenylmethylpiperazinyl)-1-phenyl alkanol or their salts, a process for their production and a cerebral circulation-improving drug” (Nippon Chemiphar Co., Ltd., priority 1982, dated 1985).
Structures can show the parent of a compound that is named as a salt. Where two headings read alike, the source gives them in different places.

Columns and labels:
[1] = Test 3: Acute Toxicity, oral, mice; conditions: mouse, in vivo, 7 days observation
Method: (§1) Certain test compounds of the invention were administered orally to SD-strain female or male rats each having a body weight of 150 to 200 g of ddN-strain male mice each having a body weight of about 20 g.

[2] = tested on: vertebral blood flow and femoral blood flow; experiment: Test 1: Peripheral Vasodilating Effect; assay type: in vivo, Mongrel dogs; conditions: 1 mg/kg i.v.; for Percentage of vertebral blood flow increase / Percentage of vertebral blood flow increase against percentage of femoral blood flow increase: anesthetized dogs, 5% aqueous tartaric acid solution, except compounds footnoted: (1) dimethylsulfoxide, (2) distilled water, (3) physiological saline
Method: Mongrel dogs of both sexes each weighing about 10 kg were anesthetized with sodium pentobarbital (35 mg/kg, i.v.). Artificial respiration was performed with room air. The vertebral blood flow and femoral blood flow were measured by an electromagnetic flowmeter (Nihon Koden, MF-27) with flow probes. The blood pressure and heart rate were measured at the same time. For intravenous administration of each compound (1 mg/kg), the cephalic vein was cannulated and the compound solution injected.

[3] = tested on: platelets (collagen-induced coagulation); experiment: Test 2: Platelet Anti-coagulating Effect, collagen-induced coagulation; assay type: in vivo, Male Wistar rats; conditions: Rattus norvegicus; for inhibition at 250 mg/kg: 250 mg/kg oral, collagen 17.4 ug/ml, read-out: Inhibition percentage, Collagen (17.4 ug/ml)
Method: (§2) Male Wistar rats each having a body weight of about 300 g were orally administered with the test compounds. With the lapse of 3 hours after administration of the compound, each rate was anesthetized with ether, and the blood was collected from its abdominal vein. […] The blood was centrifuged at 1,000 rpm for 10 minutes. The resultant platelet-rich plasma (PRP) was centrifuged for further 10 minutes at 3,000 rpm, thereby collecting a platelet-poor plasma (PPP).
(§3) ADP or collagen was added to the PRP obtained above to induce coagulation, and the thus coagulated platelets were measured by turbidimetry using a platelet aggregation tracer ("PAT-4A", tradename of Niko Kizai Kabushiki Kaisha, Japan). The coagulation inhibition percentage was determined by the following equation: [formula] A: Maximum percentage of coagulation when a compound was administered B: Maximum percentage of coagulation when physiological saline was administered

[4] = tested on: platelets (ADP-induced coagulation); experiment: Test 2: Platelet Anti-coagulating Effect, ADP-induced coagulation; assay type: in vivo, Male Wistar rats; conditions: Rattus norvegicus, 250 mg/kg oral, rats, 3 hours after administration, ADP 2.7 uM, read-out: Inhibition percentage, ADP (2.7 uM)
Method: as §2, §3

[5] = Test 3: Acute Toxicity, oral, rats; conditions: rat, in vivo, 7 days observation
Method: as §1

[6] = rats, 3 hours after administration
[7] = 200 mg/kg oral, rats, 3 hours after administration, collagen 6.25 ug/ml, read-out: Inhibition percentage, Collagen (6.25 ug/ml)
[8] = footnote * of Table 1, dogs, in dimethylsulfoxide

Structure (SMILES) | LD50 at 168 h [1] [mg/kg] | Percentage of vertebral blood flow increase [2] [%] | Percentage of vertebral blood flow increase against percentage of femoral blood flow increase [2] | also measured
OC(CN1CCN(C(c2ccccc2)c2ccccc2)CC1)c1ccc(OCc2ccccc2)cc1 (stereo not shown) [Inventive compound 4, 1-(4-Benzyloxyphenyl)-2-(4-diphenylmethylpiperazinyl)ethanol.monohydrochloride] | > 2000 | 90 | 5.8 | –
C[C@@H]([C@@H](O)c1ccc(O)cc1)N1CCN(C(c2ccccc2)c2ccccc2)CC1 (relative stereo) [Inventive compound 3, dl-threo-2-(4-Diphenylmethylpiperazinyl)-1-(4-hydroxyphenyl)propanol.tartrate] | – | 60 | 3.2 | –
Oc1ccccc1C(O)CN1CCN(C(c2ccccc2)c2ccccc2)CC1 (stereo not shown) [compound 1, 2-(4-Diphenylmethylpiperazinyl)-1-(2-hydroxyphenyl)ethanol.monohydrochloride, reference compound] | – | 26 | 1.2 | –
C[C@@H]([C@@H](O)c1ccc(OCc2ccccc2)cc1)N1CCN(C(c2ccccc2)c2ccccc2)CC1 (relative stereo) [Inventive compound 6, dl-threo-1-(4-Benzyloxyphenyl)-2-(4-diphenylmethylpiperazinyl)propanol.dihydrochloride] | – | 96 | 8.5 | –
CN(C)CCCOC1(Cc2ccccc2)CCCCCC1 [compound 4, Bencyclane fumarate, reference compound] | – | 67 | 2.9 | inhibition at 250 mg/kg [3, 6]: 0%; inhibition at 250 mg/kg [4]: 0%
CC(=O)Oc1ccccc1C(=O)O [Aspirin, reference compound] | – | – | – | inhibition at 200 mg/kg ([3]; read-out: inhibition against collagen): 99%
OC(CN1CCN(C(c2ccccc2)c2ccccc2)CC1)c1ccccc1 (stereo not shown) [compound 2, 2-(4-Diphenylmethylpiperazinyl)-1-phenylethanol.dihydrochloride, reference compound] | – | 25 | 1.3 | –
C[C@@H]([C@H](O)c1ccc(O)cc1)N1CCN(C(c2ccccc2)c2ccccc2)CC1 (relative stereo) [Inventive compound 2, dl-erythro-2-(4-Diphenylmethylpiperazinyl)-1-(4-hydroxyphenyl)propanol.1/2tartrate] | – | 66 | 3.5 | inhibition at 200 mg/kg [3, 7]: 40%; inhibition at 250 mg/kg [3, 6]: 17%; LD50 at 168 h [5]: > 2000 mg/kg; inhibition at 250 mg/kg [4]: 16%
COc1ccc(C(O)CN2CCN(C(c3ccccc3)c3ccccc3)CC2)cc1OC (stereo not shown) [Inventive compound 8, 1-(3,4-Dimethoxyphenyl)-2-(4-diphenylmethylpiperazinyl)ethanol.dihydrochloride] | 470 | 84 | 15.3 | –
COc1cc(C(O)CN2CCN(C(c3ccccc3)c3ccccc3)CC2)cc(OC)c1OC (stereo not shown) [Inventive compound 10, 2-(4-Diphenylmethylpiperazinyl)-1-(3,4,5-trimethoxyphenyl)ethanol.monohydrochloride] | > 2000 | 95 | 4.6 | –
C(=C\c1ccccc1)/CN1CCN(C(c2ccccc2)c2ccccc2)CC1 [compound 5, Cinnarizine, reference compound] | – | 60 | 2.5 | –
Oc1ccc(C(O)CN2CCN(C(c3ccccc3)c3ccccc3)CC2)cc1 (stereo not shown) [Inventive compound 1, 2-(4-Diphenylmethylpiperazinyl)-1-(4-hydroxyphenyl)ethanol.monohydrochloride] | – | 76 | 3.6 | inhibition at 200 mg/kg [3, 7]: 81%; inhibition at 250 mg/kg [3, 6]: 25%; LD50 at 168 h [5]: > 2000 mg/kg; inhibition at 250 mg/kg [4]: 28%
COc1ccc(C(O)CN2CCN(C(c3ccccc3)c3ccccc3)CC2)c(OC)c1OC (stereo not shown) [Inventive compound 9, 2-(4-Diphenylmethylpiperazinyl)-1-(2,3,4-trimethoxyphenyl)ethanol.dihydrochloride] | 1230 | 124 | 6.1 | inhibition at 200 mg/kg [3, 7]: 90%
CC(O)(CN1CCN(C(c2ccccc2)c2ccccc2)CC1)c1ccccc1 (stereo not shown) [compound 3, 2-(4-Diphenylmethylpiperazinyl)-1-methyl-1-phenylethanol.dihydrochloride, reference compound] | – | 20 | 1.1 | –
COc1ccc(C(O)CN2CCN(C(c3ccccc3)c3ccccc3)CC2)c(OC)c1 (stereo not shown) [Inventive compound 7, 1-(2,4-Dimethoxyphenyl)-2-(4-diphenylmethylpiperazinyl)ethanol.dihydrochloride] | 350 | 123 | 5.8 | –
C=CCOc1ccc(C(O)CN2CCN(C(c3ccccc3)c3ccccc3)CC2)cc1 (stereo not shown) [Inventive compound 11, 1-(4-Allyloxyphenyl)-2-(4-diphenylmethylpiperazinyl)ethanol.monohydrochloride] | > 2000 | 93 | 2.0 | –
OC(CN1CCN(C(c2ccccc2)c2ccccc2)CC1)c1ccc(OCc2ccccc2)cc1OCc1ccccc1 (stereo not shown) [Inventive compound 5, 1-(2,4-Dibenzyloxyphenyl)-2-(4-diphenylmethylpiperazinyl)ethanol.monohydrochloride] | > 2000 | 62 | 15.3 | blood flow increase, course [2, 8]: increased in two phases; increased blood flow lasted for [2, 8]: 30 min
C=CCOc1cc(OC)ccc1C(O)CN1CCN(C(c2ccccc2)c2ccccc2)CC1 (stereo not shown) [Inventive compound 12, 1-(2-Allyloxy-4-methoxyphenyl)-2-(4-diphenylmethylpiperazinyl)ethanol.dihydrochloride] | – | 123 | 7.7 | –
